From US6559182B1 (Purcell Jojoba International, LLC, priority 2001, dated 2003) come the findings set out here.

The subject of the assay is Herpes simplex (HSV1 facial herpes or HSV2 genital herpes). In words: Survey of Herpes simplex patients who treated themselves with jojoba oil esters. To be noted: jojoba oil esters compared with the previously used medication. It counts as in vivo, human. The text has this: The study included male and female subjects with a history of multiple Herpes simplex infections that were either HSV1 facial herpes or HSV2 genital herpes. There was non intentional discrimination as to age, sex, and educational or ethnic background.
In this study 57 subjects compared jojoba oil ester treatment with previously used remedies, including no treatment at all. Each subject was given directions as to how to apply the jojoba oil esters. Subjects were advised to begin treatment at the very earliest warning symptoms of burning, itching or tingling that precede a new cold sore outbreak. They were directed to apply one drop of the solution to the herpes area with their finger, then reapply it again in 15 minutes and at mealtimes and bedtime for three days.
The study utilized a survey sheet that included the average number of outbreaks per year in the past, time and date of this new outbreak and how many hours after the first symptoms before treatment was started. Subjects reported the number of doses applied, and the number of days from the onset until they were free of symptoms. They also rated the effectiveness of this treatment compared to previous remedies they had used.

Structures are written as SMILES.

For the molecule `Nc1nc2c(ncn2COCCO)c(=O)[nH]1` [Acyclovir/Zovirax, Acyclovir], the “% reporting jojoba Ester more Effective” value was determined as 84%, the “JOE a little More effective (number of patients who had used this Rx)” value (shortened to “JOE a little More effective”) is 2, the “JOE a little less effective (number of patients who had used this Rx)” value was 1 and the “JOE avg effective (number of patients who had used this Rx)” value came to 2. For the same molecule, the “JOE much more effective (number of patients who had used this Rx)” value (from here on “JOE much more effective”) stood at 14.

Turning to `CC(=O)Oc1ccccc1C(=O)O` [Aspirin], the “% reporting jojoba Ester more Effective” value amounted to 100% and the “JOE much more effective” value amounted to 1.

For the molecule `C[S+](C)[O-]` [DMSO], the “% reporting jojoba Ester more Effective” value was 100% and the “JOE a little More effective” value was found to be 1.

For the molecule `CC(=O)OCC(CCn1cnc2cnc(N)nc21)COC(C)=O` [Famavir], the “% reporting jojoba Ester more Effective” value worked out at 100% and the “JOE much more effective” value worked out at 1.

Take `OO` [Hydrogen peroxide]: the “% reporting jojoba Ester more Effective” value came out at 100%, the “JOE a little More effective” value stood at 1 and the “JOE much more effective” value is reported as 1.

Consider `NCCCC[C@H](N)C(=O)O` [Lycine], for which the “% reporting jojoba Ester more Effective” value is 67%, the “JOE avg effective (number of patients who had used this Rx)” value is recorded as 2 and the “JOE much more effective” value is 4.

`CC(C)[C@H](N)C(=O)OCCOCn1cnc2c(=O)[nH]c(N)nc21` [Valtrex]: the “% reporting jojoba Ester more Effective” value is on record as 100%, the “JOE a little More effective” value came out at 1 and the “JOE much more effective” value is given as 1.

For the molecule `CC[C@H]1OC(=O)[C@H](C)[C@@H](O[C@H]2C[C@@](C)(OC)[C@@H](O)[C@H](C)O2)[C@H](C)[C@@H](O[C@@H]2O[C@H](C)C[C@H](N(C)C)[C@H]2O)[C@](C)(O)C[C@@H](C)CN(C)[C@H](C)[C@@H](O)[C@]1(C)O` [Zithromax], the “% reporting jojoba Ester more Effective” value was found to be 100% and the “JOE much more effective” value came to 1.
